Test results from patent US9498483B2, “2,3,5-trisubstituted thiophene compounds and uses thereof” (priority 2010, dated 2016).

Legend:
[1] = test system: HCV replicon I389luc-ubi-neo/NS3-3′/ET in ET (Huh-lucubineo-ET) cells; assay: Replicon assay (Biological Example 2), luciferase readout; assay type: cell-based; conditions: Hepatitis C virus
In short: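 EC50 values come from Hill fits of % inhibition of replicon-driven firefly luciferase, relative to no-compound wells. Compounds were serially diluted (10 points, 3-fold, 0.1 nM–50 μM final, 0.5% DMSO) onto ET replicon cells and read after 48 h.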

[2] = molecular target: T1, HCV polymerase (Hepatitis C virus genotype 1b, UniProt Q9WMX2); assay: Polymerase assay of Biological Example 1 (IC50 values of Table 3); assay type: biochemical; conditions: IC50 values of Table 3, polymerase assay of Biological Example 1; read-out: NS5B-enzyme3
T1 construct: (His)6 (C); made in house; host or cells: XL-1 cells (E. coli, by own knowledge)

[3] = ET cells, luciferase activity 48 hours after compound

SMILES	IC50 ([1]; between 100 nM and 5.0 uM)	IC50 [2]	IC50 [1, 3]
CCCCCS(=O)(=O)N1CC(=O)N(c2cc(-c3ccccc3)sc2C(=O)O)C(C2CCCCC2)C1 (stereo not shown) [Compound 31, 3-[2-Cyclohexyl-6-oxo-4-(pentane-1-sulfonyl)-piperazin-1-yl]-5-phenyl-thiophene-2-carboxylic acid]	100 to 5000 nM	47 nM	–
CC(C)c1ccc(S(=O)(=O)N2CC(=O)N(c3cc(C#CC(C)(C)C)sc3C(=O)O)[C@H](C3CCCCC3)C2)cc1 [Compound 176, 3-[(R)-2-Cyclohexyl-4-(4-isopropyl-benzenesulfonyl)-6-oxo-piperazin-1-yl]-5-(3,3-dimethyl-but-1-ynyl)-thiophene-2-carboxylic acid]	–	1410 nM	≤ 100 nM
O=C(O)c1sc(-c2ccccc2)cc1N1C(=O)CN(S(=O)(=O)c2ccc(Oc3ccccc3)cc2)CC1C1CCCCC1 (stereo not shown) [Compound 51, 3-[2-Cyclohexyl-6-oxo-4-(4-phenoxy-benzenesulfonyl)-piperazin-1-yl]-5-phenyl-thiophene-2-carboxylic acid]	100 to 5000 nM	11 nM	–
CC(C)(C)C#Cc1cc(N2C(=O)C(CCO)(CCO)OC[C@H]2C2CCCCC2)c(C(=O)O)s1 [Compound 333, 3-[(R)-5-Cyclohexyl-2,2-bis-(2-hydroxy-ethyl)-3-oxo-morpholin-4-yl]-5-(3,3-dimethyl-but-1-ynyl)-thiophene-2-carboxylic acid]	100 to 5000 nM	10 nM	–
CC(C)(C)OC(=O)N1CCN(c2ccc(S(=O)(=O)N3CC(=O)N(c4cc(-c5ccccc5)sc4C(=O)O)[C@H](C4CCCCC4)C3)cn2)C[C@@H]1CO [Compound 161, (R)-4-{5-[(R)-4-(2-Carboxy-5-phenyl-thiophen-3-yl)-3-cyclohexyl-5-oxo-piperazine-1-sulfonyl]-pyridin-2-yl}-2-hydroxymethyl-piperazine-1-carboxylic acid tert-butyl ester]	–	1 nM	≤ 100 nM
O=C(O)c1sc(-c2ccccc2)cc1N1C(=O)CN(S(=O)(=O)c2ccc(N3CC[C@@H](F)C3)nc2)CC1C1CCCCC1 (stereo partly drawn) [Compound 120, 3-{2-Cyclohexyl-4-[6-((R)-3-fluoro-pyrrolidin-1-yl)-pyridine-3-sulfonyl]-6-oxo-piperazin-1-yl}-5-phenyl-thiophene-2-carboxylic acid]	–	6 nM	≤ 100 nM
O=C(O)c1sc(-c2ccccc2)cc1N1C(=O)CN(S(=O)(=O)C2CCCC2)CC1C1CCCCC1 (stereo not shown) [Compound 42, 3-(2-Cyclohexyl-4-cyclopentanesulfonyl-6-oxo-piperazin-1-yl)-5-phenyl-thiophene-2-carboxylic acid]	100 to 5000 nM	148 nM	–
COc1ccc(S(=O)(=O)N2CC(=O)N(c3cc(-c4ccccc4)sc3C(=O)O)C(C3CCCCC3)C2)cc1C(=O)O (stereo not shown) [Compound 29, 3-[4-(3-Carboxy-4-methoxy-benzenesulfonyl)-2-cyclohexyl-6-oxo-piperazin-1-yl]-5-phenyl-thiophene-2-carboxylic acid]	100 to 5000 nM	1 nM	–
O=C(O)c1sc(-c2ccc(F)cc2)cc1N1C(=O)CN(S(=O)(=O)c2ccc(N3CC4CCC(C3)O4)nc2)C[C@H]1C1CCCCC1 [Compound 196, 3-{(R)-2-Cyclohexyl-4-[6-(8-oxa-3-aza-bicyclo[3.2.1]oct-3-yl)-pyridine-3-sulfonyl]-6-oxo-piperazin-1-yl}-5-(4-fluoro-phenyl)-thiophene-2-carboxylic acid]	–	1 nM	≤ 100 nM
CC(C)(C)C#Cc1cc(N2C(=O)C(O)(CCCO)CCC2C2CCCCC2)c(C(=O)O)s1 (stereo not shown) [Compound 11, 3-[6-Cyclohexyl-3-hydroxy-3-(3-hydroxy-propyl)-2-oxo-piperidin-1-yl]-5-(3,3-dimethyl-but-1-ynyl)-thiophene-2-carboxylic acid]	–	8 nM	≤ 100 nM
Cc1ccc(-c2cc(N3C(=O)CN(S(=O)(=O)c4ccc(C)nc4)C[C@H]3C3CCCCC3)c(C(=O)O)s2)cc1 [Compound 302, 3-[(R)-2-Cyclohexyl-4-(6-methyl-pyridine-3-sulfonyl)-6-oxo-piperazin-1-yl]-5-p-tolyl-thiophene-2-carboxylic acid]	–	3 nM	≤ 100 nM
O=C(O)c1sc(-c2ccccc2)cc1N1C(=O)CCCC1C1CCCCC1 (stereo not shown) [Compound 4, 3-(2-Cyclohexyl-6-oxo-piperidin-1-yl)-5-phenyl-thiophene-2-carboxylic acid]	100 to 5000 nM	73 nM	–
Cn1ccc(S(=O)(=O)N2CC(=O)N(c3cc(-c4ccccc4)sc3C(=O)O)C(C3CCCCC3)C2)n1 (stereo not shown) [Compound 62, 3-[2-Cyclohexyl-4-(1-methyl-1H-pyrazole-3-sulfonyl)-6-oxo-piperazin-1-yl]-5-phenyl-thiophene-2-carboxylic acid]	100 to 5000 nM	11 nM	–
CC1(N)CCN(c2ccc(S(=O)(=O)N3CC(=O)N(c4cc(-c5ccccc5)sc4C(=O)O)[C@H](C4CCCCC4)C3)cn2)CC1 [Compound 138, 3-[(R)-4-(4-Amino-4-methyl-3,4,5,6-tetrahydro-2H-[1,2′]bipyridinyl-5′-sulfonyl)-2-cyclohexyl-6-oxo-piperazin-1-yl]-5-phenyl-thiophene-2-carboxylic acid]	–	1 nM	≤ 100 nM
O=C(O)c1sc(-c2ccc(Cl)cc2)cc1N1C(=O)CN(S(=O)(=O)c2ccc(N3CC4CC3CO4)nc2)C[C@H]1C1CCCCC1 (stereo partly drawn) [Compound 229, 5-(4-Chloro-phenyl)-3-{(R)-2-cyclohexyl-4-[6-(2-oxa-5-aza-bicyclo[2.2.1]hept-5-yl)-pyridine-3-sulfonyl]-6-oxo-piperazin-1-yl}-thiophene-2-carboxylic acid]	–	1 nM	≤ 100 nM
CC(C)(C)C#Cc1cc(N2C(=O)[C@](C)(CCO)OC[C@H]2C2CCCCC2)c(C(=O)O)s1 [Compound 328, 3-[(2S,5R)-5-Cyclohexyl-2-(2-hydroxy-ethyl)-2-methyl-3-oxo-morpholin-4-yl]-5-(3,3-dimethyl-but-1-ynyl)-thiophene-2-carboxylic acid]	–	6 nM	≤ 100 nM
Cc1ccc(-c2cc(N3C(=O)CN(S(=O)(=O)c4ccc(N5CCOCC5)nc4)C[C@H]3C3CCCCC3)c(C(=O)O)s2)cc1 [Compound 187, 3-[(R)-2-Cyclohexyl-4-(6-morpholin-4-yl-pyridine-3-sulfonyl)-6-oxo-piperazin-1-yl]-5-p-tolyl-thiophene-2-carboxylic acid]	–	1 nM	≤ 100 nM
O=C(N[C@H]1CC(=O)N(c2cc(-c3ccccc3)sc2C(=O)O)[C@@H](C2CCCCC2)C1)c1ccccc1 [Compound 25, 3-((2R,4R)-4-Benzoylamino-2-cyclohexyl-6-oxo-piperidin-1-yl)-5-phenyl-thiophene-2-carboxylic acid]	–	173 nM	≥ 5000 nM
O=C(O)c1sc(-c2ccc(F)cc2)cc1N1C(=O)CN(S(=O)(=O)c2ccc(N3CCCC3)nc2)C[C@H]1C1CCCCC1 [Compound 232, 3-[(R)-2-Cyclohexyl-6-oxo-4-(6-pyrrolidin-1-yl-pyridine-3-sulfonyl)-piperazin-1-yl]-5-(4-fluoro-phenyl)-thiophene-2-carboxylic acid]	–	1 nM	≤ 100 nM
O=C(O)c1ccc(-c2ccc(S(=O)(=O)N3CC(=O)N(c4cc(-c5ccccc5)sc4C(=O)O)[C@H](C4CCCCC4)C3)cn2)s1 [Compound 210, 3-{(R)-4-[6-(5-Carboxy-thiophen-2-yl)-pyridine-3-sulfonyl]-2-cyclohexyl-6-oxo-piperazin-1-yl}-5-phenyl-thiophene-2-carboxylic acid]	–	3 nM	≥ 5000 nM
CCn1cc(S(=O)(=O)N2CC(=O)N(c3cc(C#CC(C)(C)C)sc3C(=O)O)[C@H](C3CCCCC3)C2)cn1 [Compound 275, 3-[(R)-2-Cyclohexyl-4-(1-ethyl-1H-pyrazole-4-sulfonyl)-6-oxo-piperazin-1-yl]-5-(3,3-dimethyl-but-1-ynyl)-thiophene-2-carboxylic acid]	–	2 nM	≤ 100 nM
CC(C)(C)C#Cc1cc(N2C(=O)[C@H](CCO)OC[C@H]2C2CCCCC2)c(C(=O)O)s1 [Compound 332, 3-[(2S,5R)-5-Cyclohexyl-2-(2-hydroxy-ethyl)-3-oxo-morpholin-4-yl]-5-(3,3-dimethyl-but-1-ynyl)-thiophene-2-carboxylic acid]	–	12 nM	≤ 100 nM
Cc1nn(C)cc1S(=O)(=O)N1CC(=O)N(c2cc(C#CC(C)(C)C)sc2C(=O)O)[C@H](C2CCCCC2)C1 [Compound 260, 3-[(R)-2-Cyclohexyl-4-(1,3-dimethyl-1H-pyrazole-4-sulfonyl)-6-oxo-piperazin-1-yl]-5-(3,3-dimethyl-but-1-ynyl)-thiophene-2-carboxylic acid]	100 to 5000 nM	8 nM	–
COC[C@@H]1CCCN1c1ccc(S(=O)(=O)N2CC(=O)N(c3cc(-c4ccc(F)cc4)sc3C(=O)O)[C@H](C3CCCCC3)C2)cn1 [Compound 279, 3-{(R)-2-Cyclohexyl-4-[6-((S)-2-methoxymethyl-pyrrolidin-1-yl)-pyridine-3-sulfonyl]-6-oxo-piperazin-1-yl}-5-(4-fluoro-phenyl)-thiophene-2-carboxylic acid]	–	1.1 nM	≤ 100 nM
O=C(O)c1sc(-c2ccccc2)cc1N1C(=O)CN(S(=O)(=O)C2CCN(C(=O)OCc3ccccc3)CC2)CC1C1CCCCC1 (stereo not shown) [Compound 112, 4-[4-(2-Carboxy-5-phenyl-thiophen-3-yl)-3-cyclohexyl-5-oxo-piperazine-1-sulfonyl]-piperidine-1-carboxylic acid benzyl ester]	–	173 nM	≥ 5000 nM
N[C@H]1CC(=O)N(c2cc(-c3ccccc3)sc2C(=O)O)[C@H](C2CCCCC2)C1 [Compound 28, 3-((2S,4R)-4-Amino-2-cyclohexyl-6-oxo-piperidin-1-yl)-5-phenyl-thiophene-2-carboxylic acid]	–	226 nM	≥ 5000 nM
